# Test results from patent US10857180B2, “Pharmaceutical composition for improving health, cure abnormalities and degenerative disease, achieve anti-aging effect of therapy and therapeutic effect on mammals and method thereof” (priority 2014, dated 2020).
# Assays:
# [1] = Acute toxicity / tolerated dose in healthy mice; assay type: in vivo, mouse; parameters: weight of experimental animals: unit not given here; conditions: for animals in the group alive: 24 days
# Text: To this end, the effects of the agent according to the invention on the basic physiological functions of healthy animals were studied. 70 male Cs7Bl/6J mice at the age of 7-8 weeks, weighing 18-23 g were used in the experiment. The animals were taken from R. E. Kavetsky IEPOR NASU Vivarium. Before the experiment, all the animals were healthy, with normal behavioral performance. During the experiment, the animals were kept in plastic cages under natural light illumination, on a standard diet with free access to food and water.
# Clinical observations were carried out by daily examination of all animals kept in cages to identify mortality or any signs of a deviation in health status. […] All deviations were recorded. The size of the tumors was measured every 2 days (3 times a week) after the apparent onset of ascites/tumor node growth (at day 8 after the inoculation of tumor cells). Dying animals were euthanized, weighed and necropsied. The decision to euthanize such animals was taken jointly with the research supervisor and veterinarian. The animals were subjected to complete necrosis, which included examination of the external surface of the body, all passages, cranial, thoracic, abdominal cavities and their contents.
# In the experiment, the animals were administered the solution comprising ^64Zne aspartate intraperitoneally at doses of 120 μg/mouse, 80 μg/mouse, 50 μg/mouse and 25 μg/mouse, and intravenously at doses of 50 μg/mouse, 25 gig/mouse and 12.5 μg/mouse. The agent was dissolved in deuterium-depleted water and injected 7 times every other day for 14 days in a volume of 0.5 ml/mouse for intraperitoneal injection and in a volume of 0.2 ml for intravenous injection with the agent. In order to determine the maximum tolerated dose of ^64Zne aspartate included in the composition of the agent according to the invention, the laboratory mice were injected with the ^64Zne aspartate solution using a series of injections (7 injections) and different routes of administration (i.p. or i.v.). The animals were observed during 24 days after the first administration of the agent (14 days for a series of injections of the ^64Zne compound and 10 days after the last administration of the agent). The overall health of the animals, state of coat and mucous membranes, their behavior, reflexes, and basic functions of the gastrointestinal tract were evaluated.
# [2] = tested on: normal rat kidney cells (NRK cell line); assay: Effect on normal rat kidney cells versus Doxorubicin
# Text: An immortalized cell line is a stable, capable of unlimited proliferation cell line that consists of cells with […] in culture.
# [3] = tested on: normal rat kidney cells (NRK cell line); assay: Scratch assay, NRK cells; assay type: cell-based; conditions: various doses; as in the control
# Protocol: (§1) The cells of A-549, A-431, NRK, HaCaT, MM-4, normal fibroblasts (derived from the Bank of Cell Lines from human and animal tissues, R. E. Kavetsky Institute of Experimental Pathology, Oncology and Radiobiology, National Academy of Sciences of Ukraine) were cultured in complete culture medium RPMI 1640/DMEM (PAA, Austria) (depending on the cell type) supplemented with 10% fetal calf serum (PAA, Austria) and incubated in 5% CO2 humidified atmosphere at 37° C. The culture medium was replaced in 2 to 3 days and the cells were passaged in 4 to 5 days.
# Analysis of the influence of the components under study on the cell migration rate was performed using the scratch assay method. Cells (5×10^4/well) were seeded into the wells of a 12-well plate in 2 repeats in RPMI-1640/DMEM culture medium supplemented with 10% PBS, 40 mcg/ml of gentamicin and incubated in 5% CO2 humidified atmosphere at 37° C. for 24 hours.
# The plate was incubated in a CO2 incubator for additional 48 hours. After the cells formed a dense monolayer it was damaged (by making a “scratch”) and the growth medium was replaced to remove cell debris and smooth the edges of the “scratch.” The rate of cell migration was analyzed using an inverted microscope and by photographing cells in the area of injury. The migration activity of cells was fixed at several time points (depending on the cell line analyzed). The microphotomicrographs were analyzed and the cell incubation time needed to restore the monolayer was determined for all experimental groups.
# [4] = tested on: A-549 cell line (human lung cancer); assay: Type A cell transformation of A-549 cells, effect of solution storage; assay type: cell-based
# Protocol: Alluding to the above, the effect of accumulation of antitumor properties of light isotopes containing materials on A-549 tumor cell line will now be discussed. When working with the preparations under study, it was noted that the functional activity of certain doses of the components increased over time after preparation of the solution and its subsequent storage at t+4° C. […] The preparation was stored at the temperature of […].
# [5] = tested on: acute promyelocyte leukemia (HL-60 line) cells; assay: Immunocytochemical analysis (H-Score) of HL-60 cells; assay type: cell-based, human
# Protocol: Materials and methods for leukemia cell lines HL-60 and Namalva and cell culture conditions will now be described. Initial HL-60 and Namalva cells were cultured in complete RPMI 1640 medium (PAA) (PAA, Austria) supplemented with 10% fetal calf serum (PAA) and incubated in 5% CO2 humidified atmosphere at 37° C. The culture medium was replaced in 2 to 3 days and the cells were passaged in 4 to 5 days.
# In carrying out the immunocytochemical (ICC) assay, cells on microscope glasses (cytospin preparations) were fixed in the solution (methanol+acetone (1:1)) for 2 hours at t−20° C. and then incubated with a 1% solution of bovine serum albumin (BSA) for 20 minutes.
# After the immunocytochemical reaction, the preparations were rinsed with water and counterstained with hematoxylin and eosin for 15 to 30 seconds. The results were analyzed by a quantitative estimation of cells with the marker expression (increased brown color of cells corresponded to a higher degree of expression of the marker) using a light microscope and assessed using the classical H-Score method: S=1×A+2×B+3×C, where S is the H-Score index the values of which are within the scope of 0 (protein is not detectable) to 300 (high-level expression in 100% of the cells), A is a percentage of weakly stained cells, B is the percentage of moderately stained cells, and C the percentage of strongly stained cells.
# [6] = tested on: MCF-7 cell line; assay: Cytogenetic analysis (micronucleus test) of MCF-7 cells; assay type: cell-based, human
# Protocol: Advanced Micronucleus Test was used to assess the cytogenetic characteristics of cells after their exposure to the action of the test group of components.
# Cytogenetic analysis was carried out after 48 hours of exposure of the cells to the action of the components. For cytogenetic analysis, the cells were incubated in hypotonic solution KCl (0.54%) (Reahim, Ukraine) for 40 minutes at +37° C. Then they were fixed with a mixture of methyl alcohol (Reahim, Ukraine) and acetic acid (Himlaborreaktiv, Ukraine) (3:1) with replacing the fixative three times. All fixed cell suspensions were applied on cold wet glasses, dried and stained with Giemsa stain (Sigma, Germany). The cytogenetic preparations were analyzed using a binocular microscope Sari Zeiss, AxioStarPlus (Germany) with magnification of x 1000. The following quantitative characteristics and stages of cell division were analyzed on the preparations: mitoses, cells with premature chromosome condensation (PCC), cells with micronuclei (CMN), apoptotic cells and cells with nuclear protrusions (protrusions) which were calculated for 1000 cells and expressed in per mille (%).
# [7] = tested on: human melanoma tumor cells (MM-4 cell line); assay: Scratch assay, MM-4 cells; assay type: cell-based; conditions: ^64Zn 15 mcg/ml; 48 hours in control
# Protocol: as §1
# Analysis of the influence of the components under study on the cell migration rate was performed using the scratch assay method. […]
# The plate was incubated in a CO2 incubator for additional 48 hours. After the cells formed a dense monolayer it was damaged (by making a “scratch”) and the growth medium was replaced to remove cell debris and smooth the edges of the “scratch.” The rate of cell migration was analyzed using an inverted microscope and by photographing cells in the area of injury. The migration activity of cells was fixed at several time points (depending on the cell line analyzed). The microphotomicrographs were analyzed and the cell incubation time needed to restore the monolayer was determined for all experimental groups. […]
smiles,measurement,setting,value
"NC(CC(=O)[O-])C(=O)[O-].[64Zn+2] (racemic) [^64Zne aspartate, ^64Zn aspartate (racemic)]",animals in the group alive,[1]; i.p. 25 μg/mouse x7,100% of the animals in the group are alive. Locomotor activity is
same,weight of experimental animals,"[1]; i.p. 25 μg/mouse, day 0",21.1 ± 0.5
same,weight of experimental animals,"[1]; i.p. 25 μg/mouse, day 2",20.1 ± 0.3
same,weight of experimental animals,"[1]; i.p. 25 μg/mouse, day 4",18.3 ± 0.7
same,weight of experimental animals,"[1]; i.p. 25 μg/mouse, day 8",18.4 ± 1
same,weight of experimental animals,"[1]; i.p. 25 μg/mouse, day 11",18.2 ± 0.9
same,weight of experimental animals,"[1]; i.p. 25 μg/mouse, day 15",19.2 ± 0.5
same,weight of experimental animals,"[1]; i.p. 25 μg/mouse, day 19",19.8 ± 0.4
same,weight of experimental animals,"[1]; i.p. 25 μg/mouse, day 24",20.5 ± 0.6
same,animals in the group alive,[1]; i.p. 50 μg/mouse x7,100% of the animals in the group are alive. Locomotor activity is
same,weight of experimental animals,"[1]; i.p. 50 μg/mouse, day 0",21.3 ± 0.5
same,weight of experimental animals,"[1]; i.p. 50 μg/mouse, day 2",20.4 ± 0.4
same,weight of experimental animals,"[1]; i.p. 50 μg/mouse, day 4",19.2 ± 0.6
same,weight of experimental animals,"[1]; i.p. 50 μg/mouse, day 8",19.8 ± 0.7
same,weight of experimental animals,"[1]; i.p. 50 μg/mouse, day 11",19.5 ± 0.8
same,weight of experimental animals,"[1]; i.p. 50 μg/mouse, day 15",19 ± 0.6
same,weight of experimental animals,"[1]; i.p. 50 μg/mouse, day 19",19.2 ± 0.7
same,weight of experimental animals,"[1]; i.p. 50 μg/mouse, day 24",20 ± 0.5
same,animals in the group alive,[1]; i.p. 80 μg/mouse x7,80% of the animals in the group are alive. Some changes in the
same,animals died after 4 or 5 injections,"[1]; i.p. 80 μg/mouse, 8th or 10th day",agent. 20% of the animals in the group died after 4 or 5 injections
same,animals with short-lasting diarrhea,"[1]; i.p. 80 μg/mouse, 18-24 hours after administration",It should be noted that a short-lasting diarrhea was observed in 40%
same,body weight loss compared to the control figures,"[1]; i.p. 80 μg/mouse, already on the 4th day after first injection",15-20%
same,weight of experimental animals,"[1]; i.p. 80 μg/mouse, day 0",21.4 ± 0.4
same,weight of experimental animals,"[1]; i.p. 80 μg/mouse, day 2",20.5 ± 0.5
same,weight of experimental animals,"[1]; i.p. 80 μg/mouse, day 4",17.3 ± 0.2
same,weight of experimental animals,"[1]; i.p. 80 μg/mouse, day 8",17.5 ± 0.1
same,weight of experimental animals,"[1]; i.p. 80 μg/mouse, day 11",17.3 ± 0.1
same,weight of experimental animals,"[1]; i.p. 80 μg/mouse, day 15",16.5 ± 0.1
same,weight of experimental animals,"[1]; i.p. 80 μg/mouse, day 19",17.2 ± 0.2
same,weight of experimental animals,"[1]; i.p. 80 μg/mouse, day 24",17.6 ± 0.1
same,animals in the group died,"[1]; i.p. 120 μg/mouse, within 48 hours after the first injection",100% of the animals in the group died within 48 hours after the
same,animals in the group alive,[1]; i.v. 12.5 μg/mouse x7,100% of the animals in the group are alive. Locomotor activity is
same,weight of experimental animals,"[1]; i.v. 12.5 μg/mouse, day 0",21.1 ± 0.4
same,weight of experimental animals,"[1]; i.v. 12.5 μg/mouse, day 2",20.9 ± 0.3
same,weight of experimental animals,"[1]; i.v. 12.5 μg/mouse, day 4",20.2 ± 0.5
same,weight of experimental animals,"[1]; i.v. 12.5 μg/mouse, day 8",20.6 ± 0.9
same,weight of experimental animals,"[1]; i.v. 12.5 μg/mouse, day 11",20.6 ± 1
same,weight of experimental animals,"[1]; i.v. 12.5 μg/mouse, day 15",20.9 ± 0.9
same,weight of experimental animals,"[1]; i.v. 12.5 μg/mouse, day 19",21 ± 0.7
same,weight of experimental animals,"[1]; i.v. 12.5 μg/mouse, day 24",21.1 ± 0.8
same,animals in the group alive,[1]; i.v. 25 μg/mouse x7,100% of the animals in the group are alive. Locomotor activity is
same,weight of experimental animals,"[1]; i.v. 25 μg/mouse, day 0",21.8 ± 0.3
same,weight of experimental animals,"[1]; i.v. 25 μg/mouse, day 2",21.3 ± 0.5
same,weight of experimental animals,"[1]; i.v. 25 μg/mouse, day 4",20.8 ± 0.5
same,weight of experimental animals,"[1]; i.v. 25 μg/mouse, day 8",21.4 ± 0.5
same,weight of experimental animals,"[1]; i.v. 25 μg/mouse, day 11",21.4 ± 0.5
same,weight of experimental animals,"[1]; i.v. 25 μg/mouse, day 15",21.3 ± 0.6
same,weight of experimental animals,"[1]; i.v. 25 μg/mouse, day 19",21.7 ± 0.4
same,weight of experimental animals,"[1]; i.v. 25 μg/mouse, day 24",21.6 ± 0.5
same,animals in the group died,"[1]; i.v. 50 μg/mouse, within 10-20 minutes after the first injection",100% of the animals in the group died within 10-20 minutes after
same,maximum tolerated dose,[1]; intraperitoneal,80 μg/mouse
same,maximum tolerated dose,[1]; intravenously,25 μg/mouse
O=S(=O)([O-])[O-].[24Mg+2] [^24Mg],effect on functional properties of NRK cells,[2],did not affect functional properties
[39K+].[Cl-] [^39K],time of restoration of the damaged monolayer,[3],30 h
same,transformation of initial tumor cells to cells of type A,"[4]; ^39K 0.4 mg/ml, in both cases",100%
same,transformation of initial tumor cells to cells of type A,[4]; ^39K 10 mg/ml,no transformational effect was found
same,number of cells of type A after 20 days of storage vs first day,[4]; ^39K sulphate form 2 mg/ml,2 fold
same,amount of N-cadherin-positive cells,[5],in most cases increased
same,number of cells expressing ICAM,"[5]; ^39K 2 and 0.5 mg/ml, ^64Zn 10 mcg/ml",reduction in the number of cells
same,level of expression of CD44,[5]; especially in high doses,tendency to decrease in the level of expression
O=S(=O)([O-])[O-].[64Zn+2] [^64Zn],level of cells with micronuclei,[6],more than a two-fold increase
same,time of restoration of the damaged monolayer,[3],30 h
same,time of the gap closing,[7],72 h
same,effect on functional properties of NRK cells,[2],did not affect functional properties
same,cells of type A,"[4]; ^64Zn sulphate, after 28 days",About 50%
